Results as given in article PMC6691788, “Design and synthesis of phthalazine-based compounds as potent anticancer agents with potential antiangiogenic activity via VEGFR-2 inhibition” (Journal of Enzyme Inhibition and Medicinal Chemistry, 2019).
“Also recorded” adds a separate entry of the source.

Key:
[1] = tested on: cleaved caspase-3 in MCF-7 cells; test: Cleaved caspase-3 immunostaining; type: cell-based; details: MCF-7, 0.32 µM, 24 h and 48 h
Description: Caspase-3 is a member of the cysteine-aspartic acid protease (caspase) family. Sequential activation of caspases is considered as one of the important keys in cellular apoptosis process. […] Cleaved caspase-3 further activates a cascade of caspases that induce cell death.
(§1) MCF7 cells were cultured on sterile cover slips (Harvard Apparatus, 22 mm2) in sterile six well plates at a density of 2×10^5 cells/well. Twenty-four hours after seeding, cells were exposed to GI50 concentration of compound 7b in fresh serum-free medium. At the end of the exposure, cells attached to cover slips were imaged with a light inverted microscope or washed with PBS and fixed with 3.7% paraformaldhyde for 10 min, permeabilized with 0.1% Triton X-100 in TBST containing 0.01% Tween 20 for 10 min, and blocked for 1 h with 5% goat serum in TBST. The fixed and permeabilized cells were incubated with cleaved caspase-3 rabbit mAb (Cell signaling technology, MA), at a dilution of 1:500, in blocking solution overnight at 4 °C, followed by secondary Cy3-goat anti-Rabbit antibody (Jackson Immuno Research, West Grove, PA) 1:1000 dilution, in the blocking solution for 1 hour, at room temperature. 4',6'-diamidino-2-phenylindole, dihydrochloride (DAPI) (Sigma– Aldrich, St. Louis, MO) was used as counter stain to stain the DNA. […]

MCF-7 cells = test: Cellular and nuclear morphology (light microscopy, Dapi staining); type: cell-based; details: MCF-7, 0.32 µM, 24 and 48 h
Description: To further examine the apoptosis inducing effect of 7b, the cellular as well as nuclear morphological changes for MCF-7 cells treated with 7b (0.32 µM) were studied following Dapi staining. The effect of 7b on cell morphology was initially analysed with light microscopy.
as §1

Compound: O=C(Nc1ccc(Cl)cc1)Nc1ccc(Oc2nncc3ccccc23)cc1 [Compound 7b, 1–(4-Chlorophenyl)-3–(4-(phthalazin-1-yloxy)phenyl)urea]
- cleaved caspase-3 protein expression [1]: concurrent increase in cleaved caspase-3 expression level; also recorded: time-dependent increase in cleaved caspase-3 protein expression; also recorded: increase the expression of cleaved caspase-3
- cellular and nuclear morphology (MCF-7 cells): deteriorated morphological changes including cell rounding, detachment and cellular fragmentation; also recorded: typical apoptotic characteristics; including condensation of chromatin (brightly stained cells), blubbing with the appearance of nuclear fragmentation
